The numbers were not newly measured in patent publication US20230019058A1, “METHOD FOR THE TREATMENT OF VIRAL INFECTIONS” (Softhale NV, priority 2020, published 2023), which cites them from elsewhere.

Structures are written as SMILES.

In series [1] the test system is influenza virus. The settings on record: reported by S. Matsuyama et al.; cited from earlier work.
The test system of series [2] is SARS-CoV-2. To be noted: reported by S. Matsuyama et al., read-out: effective concentration to block SARS-CoV-2 replication (EC90); cited from earlier work.
In series [3] the test system is human coronavirus. The settings on record: cultured cells; reported by S. Matsuyama et al.; cited from earlier work.
Series [4] concerns respiratory syncytial virus. To be noted: reported by S. Matsuyama et al.; cited from earlier work.

On to `CC(C)C(=O)OCC(=O)[C@@]12O[C@H](C3CCCCC3)O[C@@H]1C[C@H]1[C@@H]3CCC4=CC(=O)C=C[C@]4(C)[C@H]3[C@@H](O)C[C@@]12C` [ciclesonide, (11β, 16α)-16, 17-[[(R)-cyclohexylmethylene]bis(oxy)]-11-hydroxy-21-(2-methyl-1-oxopropoxy)-pregna-1,4-diene-3,20-dione], for which the “suppression of replication of influenza virus” value in series [1] is recorded as “did not suppress”. In addition, the EC90 in series [2] is 6.3 µM. Moreover, the “suppression of human coronavirus replication” value in series [3] was “suppressed human coronavirus replication”. For the same compound, the “suppression of replication of respiratory syncytial virus” value in series [4] is given as “did not suppress”.
